≈ marks a conversion by molar mass, not a printed value.
Experiments:
Assay type in all cases: cell-based
[1] = test system: Staphylococcus epidermidis, Corynebacterium xerosis, Brevibacterium epidermidis; assay: MIC determination, agar dilution method, summary over the three test organisms; conditions: summary of Table 4 over all three test organisms
Experimental: To prepare various test concentrations 2.6 ml of a 3.3% stock solution (3.3 g 1,2-decanediol or comparison substance in 100 ml ethanol (96% in H2O; Merck, Cat. no. 1.00971)) was used at the starting material in each case. Further test concentrations (diluted sample) in the form of a geometric dilution series were prepared by progressive 2:1 dilution with ethanol (96%; Merck, Cat. no. 1.00971). Determination of the antimicrobial action of 1,2-decanediol (or of a comparison substance) was carried out with the aid of the agar dilution method based on DIN 58 940/ICS and DIN 58 944/ICS. […] The inoculated plates were incubated under the conditions given in Table 3 and were then assessed. […] Minimum, barely visible growth or a few small individual colonies were assessed as inhibition. Suspensions of the microorganisms described above were incubated in accordance with the general test conditions described under 1. and the MIC values of 1,2-decanediol were determined (see Table 4). For reference purposes the MIC values for 1,2-octanediol were also determined.

[2] = test system: Corynebacterium xerosis ATCC 7711; assay: MIC determination, agar dilution method (DIN 58 940/58 944); conditions: ATCC7711, Mueller-Hinton agar, aerobic, 18 h at 36° C., pure substance
Experimental: (§1) To prepare various test concentrations 2.6 ml of a 3.3% stock solution (3.3 g 1,2-decanediol or comparison substance in 100 ml ethanol (96% in H2O; Merck, Cat. no. 1.00971)) was used at the starting material in each case. Further test concentrations (diluted sample) in the form of a geometric dilution series were prepared by progressive 2:1 dilution with ethanol (96%; Merck, Cat. no. 1.00971). Determination of the antimicrobial action of 1,2-decanediol (or of a comparison substance) was carried out with the aid of the agar dilution method based on DIN 58 940/ICS and DIN 58 944/ICS. Petri dishes 5.5 cm in diameter were filled with 8.7 ml freshly prepared Mueller-Hinton agar (Merck, Cat. no. 1.05437 or Wilkins-Chalgren agar boillon (sic), Oxoid, Cat. no. CM 643, supplemented with 10 g agar-agar/litre) kept liquid at 50° C., to which in each case 0.3 ml of the particular sample, that is to say 3.3% (V/V) based on the total volume of agar and sample, was added. By means of this further dilution of the undiluted stock solution and of the already diluted samples with the test agar (0.3 ml of the stock solution or of the corresponding diluted sample+8.7 ml agar) 30-fold lower end concentrations were prepared in each case (when using the stock solution an initial concentration of 1,100 ppm results). The concentrations given below are based on the pure substance and have been converted to ppm. 2 agar plates were cast per test concentration and nutrient medium. After solidification and drying (about 1 h at 37° C.), the test plates were inoculated in point form with, in each case, 1 μl of the test organism suspensions listed below. To check purity and identity, the aerobically growing bacteria Brevibacterium epidermidis, Corynebacterium xerosis; and Staphylococcus epidermidis were cultured on Columbia blood agar (BioMérieux, Cat. no. 43049). Further details on the test organisms can be taken from Table 2. [table] The preparation of the test organism suspensions of the test organisms for Brevibacterium epidermidis, Corynebacterium xerosis, and Staphylococcus epidermidis was carried out by incubation of Mueller-Hinton bouillon (Merck, Cat. no. 1.10293), which had been inoculated with a few individual colonies of the particular test organisms, at 36° C. After a distinct turbidity had been achieved, sterile nutrient bouillon was added to the suspensions in such an amount that the turbidity thereof corresponded to McFarland Standard 0.5 (approx. 10^8 CFU/ml). The inoculated plates were incubated under the conditions given in Table 3 and were then assessed. The MIC (minimum inhibitory concentration) was considered to be the lowest active compound concentration with which there is macroscopically no growth. Minimum, barely visible growth or a few small individual colonies were assessed as inhibition. [table] Suspensions of the microorganisms described above were incubated in accordance with the general test conditions described under 1. and the MIC values of 1,2-decanediol were determined (see Table 4). For reference purposes the MIC values for 1,2-octanediol were also determined.

[3] = test system: Brevibacterium epidermidis ATCC 35514; assay: as above; conditions: ATCC35514, Mueller-Hinton agar, aerobic, 18 h at 36° C., pure substance
Experimental: as §1

[4] = test system: Staphylococcus epidermidis ATCC 12228; assay: as above; conditions: ATCC12228, Mueller-Hinton agar, aerobic, 18 h at 36° C., pure substance
Experimental: as §1

[5] = test system: Corynebacterium xerosis (C. xerosis 7711); assay: Growth curve, suspension test; conditions: concentration 0.3% in AC medium; incubated 20, 60 and 180 min; compared with 1,2-octanediol and farnesol
Experimental: • AC medium: 37 g brain heart infusion, 5 g glucose, 1 ml Tween 80, made up to 1 l with H2O. Test Substances: • 1,2-Octanediol (0.3%) • 1,2-Decanediol (0.3%) • Farnesol (0.3%) Control: • AC medium without active compound Test Solutions: • Relevant test substance in AC medium Suspension Test (see FIG. 1) 60 ml AC medium were inoculated with 0.4 ml of a fresh overnight culture of the test organism Corynebacterium xerosis (C. xerosis 7711). The culture vessel was shaken at 30° C. and 250 rpm until a cell density of 10^5 to 10^6 cells/ml had been reached. The test substances were weighed out and in each case dissolved in 2.5 ml AC medium with brief heating to 60° C. The test solutions obtained in this way were then added to 2.5 ml bacterial suspension in each case and the mixtures were incubated for 20, 60 and 180 min maintaining the growth conditions. 100 μl of the incubated test solutions were then taken and the bacterial titre determined by plating-out on nutrient medium.

| Compound | MIC values (over the three test organisms) [1] | MIC [2] [µg/mL] | MIC [3] [µg/mL] | MIC [4] [µg/mL] | effectiveness in growth curve (bacterial titre) [5] | MIC [1] [µg/mL] |
| --- | --- | --- | --- | --- | --- | --- |
| CCCCCCCCC(O)CO (stereo not drawn) [1,2-Decanediol, 1,2-decanediol] | distinctly lower | 225 (≈ 1.29 mM) | 450 (≈ 2.58 mM) | 225 (≈ 1.29 mM) | by far the greatest effectiveness of the substances tested | – |
| CCCCCCC(O)CO (stereo not drawn) [1,2-Octanediol, 1,2-octanediol, reference compound] | – | 3600 (≈ 24.6 mM) | 3600 (≈ 24.6 mM) | 1800 (≈ 12.3 mM) | – | 1800 to 3600 (≈ 12.3 to 24.6 mM) |

Source: patent US7247295B2, “Use of 1,2-decandiol for combating germs causing body odor” (DRAGOCO Gerberding & Co. AG, priority 2001, dated 2007)
